Data as given in US10364247B2, “Preparation and use of novel protein kinase inhibitors” (Ruijin Hospital Affiliated to Shanghai Jiao Tong University …, priority 2015, dated 2019).

Assays:
Test in all cases: KINOMEscan competition binding
[1] = target: BRK (Homo sapiens, UniProt Q13882); settings: BRK (Entrez PTK6), read-out: Percent Control
Outline: (§1)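 Competition binding against an immobilized active-site-directed ligand; compound tested at 10 μM. Binding reported as % Ctrl, lower values meaning stronger interaction.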

[2] = target: FLT3(D835H) (Homo sapiens, UniProt P36888, D835H); settings: read-out: Percent Control
Outline: as §1

[3] = target: T1, EGFR(T790M) (Homo sapiens, UniProt P00533, T790M); settings: read-out: Percent Control
T1 construct: purchased KINOMEscan (screening service)
Outline: as §1

[4] = target: T2, TAOK3 (Homo sapiens, UniProt Q9H2K8); settings: read-out: Percent Control
T2 construct: purchased KINOMEscan (screening platform)
Outline: as §1

[5] = target: T3, RAF1 (Homo sapiens, UniProt P04049); settings: read-out: Percent Control
T3 construct: purchased KINOMEscan (screening service)
T3 sequence (P04049 whole entry): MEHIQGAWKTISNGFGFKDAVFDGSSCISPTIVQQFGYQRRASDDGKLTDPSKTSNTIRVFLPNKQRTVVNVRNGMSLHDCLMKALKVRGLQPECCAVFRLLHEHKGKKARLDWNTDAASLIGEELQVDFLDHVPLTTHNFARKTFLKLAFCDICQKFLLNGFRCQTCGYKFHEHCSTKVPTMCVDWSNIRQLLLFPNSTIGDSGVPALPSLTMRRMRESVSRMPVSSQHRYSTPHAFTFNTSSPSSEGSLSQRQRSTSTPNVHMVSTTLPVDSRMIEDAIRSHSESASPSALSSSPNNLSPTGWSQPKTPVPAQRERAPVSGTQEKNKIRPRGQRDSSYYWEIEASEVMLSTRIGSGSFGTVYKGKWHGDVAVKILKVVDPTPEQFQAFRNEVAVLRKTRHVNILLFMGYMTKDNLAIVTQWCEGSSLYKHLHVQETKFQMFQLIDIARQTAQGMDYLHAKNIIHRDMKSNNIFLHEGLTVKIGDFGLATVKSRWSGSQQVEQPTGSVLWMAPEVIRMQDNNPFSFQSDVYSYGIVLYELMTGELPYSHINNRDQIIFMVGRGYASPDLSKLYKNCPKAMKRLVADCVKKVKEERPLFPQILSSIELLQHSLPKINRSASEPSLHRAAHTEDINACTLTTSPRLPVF
Outline: as §1

[6] = target: EPHA1 (Homo sapiens, UniProt P21709); settings: read-out: Percent Control
Outline: as §1

[7] = target: DDR1 (Homo sapiens, UniProt Q08345); settings: read-out: Percent Control
Outline: as §1

[8] = target: T4, BTK (Homo sapiens, UniProt Q06187); settings: read-out: Percent Control
T4 construct: purchased KINOMEscan (panel service)
Outline: as §1

[9] = target: RIPK2 (Homo sapiens, UniProt O43353); settings: read-out: Percent Control
Outline: as §1

[10] = target: T5, RET(V804L) (Homo sapiens, UniProt P07949, V804L); settings: read-out: Percent Control
T5 construct: purchased KINOMEscan (panel service)
T5 sequence (P07949 29-1114 V804L): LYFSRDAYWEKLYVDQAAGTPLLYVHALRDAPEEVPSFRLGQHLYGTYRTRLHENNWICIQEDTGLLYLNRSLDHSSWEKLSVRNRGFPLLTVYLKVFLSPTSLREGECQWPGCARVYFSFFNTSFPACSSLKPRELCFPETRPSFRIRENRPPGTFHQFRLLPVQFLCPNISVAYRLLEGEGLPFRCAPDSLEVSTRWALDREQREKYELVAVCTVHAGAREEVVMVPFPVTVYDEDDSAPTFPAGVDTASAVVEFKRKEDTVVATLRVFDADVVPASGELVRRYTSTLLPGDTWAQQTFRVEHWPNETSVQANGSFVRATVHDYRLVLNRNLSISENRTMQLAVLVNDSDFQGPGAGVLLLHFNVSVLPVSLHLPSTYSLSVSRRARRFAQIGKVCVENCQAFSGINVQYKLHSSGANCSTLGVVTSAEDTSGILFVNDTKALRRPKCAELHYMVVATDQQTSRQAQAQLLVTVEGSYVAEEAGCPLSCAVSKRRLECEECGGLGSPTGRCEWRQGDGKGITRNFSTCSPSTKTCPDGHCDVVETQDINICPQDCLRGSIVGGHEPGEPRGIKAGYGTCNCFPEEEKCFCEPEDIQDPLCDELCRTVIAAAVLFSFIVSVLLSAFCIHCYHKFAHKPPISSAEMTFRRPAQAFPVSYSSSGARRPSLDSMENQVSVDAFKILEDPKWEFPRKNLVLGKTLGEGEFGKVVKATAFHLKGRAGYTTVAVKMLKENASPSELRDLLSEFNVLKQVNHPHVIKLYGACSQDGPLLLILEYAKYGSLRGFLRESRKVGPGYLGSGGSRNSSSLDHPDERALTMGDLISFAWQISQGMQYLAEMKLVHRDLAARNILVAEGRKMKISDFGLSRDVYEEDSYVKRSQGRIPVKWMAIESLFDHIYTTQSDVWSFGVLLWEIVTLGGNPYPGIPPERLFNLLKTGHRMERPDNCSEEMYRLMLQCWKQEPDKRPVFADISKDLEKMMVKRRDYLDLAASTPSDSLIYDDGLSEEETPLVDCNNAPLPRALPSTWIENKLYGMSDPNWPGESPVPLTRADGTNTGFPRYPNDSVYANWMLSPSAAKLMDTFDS
Outline: as §1

[11] = target: FRK (Homo sapiens, UniProt P42685); settings: read-out: Percent Control
Outline: as §1

[12] = target: T6, TRPM6 (Homo sapiens, UniProt Q9BX84); settings: read-out: Percent Control
T6 construct: purchased KINOMEscan (screening platform)
Outline: as §1

[13] = target: T7, ASK2 (Homo sapiens, UniProt O95382); settings: ASK2 (Entrez MAP3K6), read-out: Percent Control
T7 construct: purchased KINOMEscan (screening service)
Outline: as §1

[14] = target: T8, RET(V804M) (Homo sapiens, UniProt P07949, V804M); settings: read-out: Percent Control
T8 construct: purchased KINOMEscan (panel service)
T8 sequence (P07949 29-1114 V804M): as the sequence (P07949 29-1114 V804L) above, with L776M counted along it
Outline: as §1

[15] = target: FLT3(N841I) (Homo sapiens, UniProt P36888, N841I); settings: read-out: Percent Control
Outline: as §1

[16] = target: RET (Homo sapiens, UniProt P07949); settings: read-out: Percent Control
Sequence of RET (P07949 29-1114): as the sequence (P07949 29-1114 V804L) above, with L776V counted along it
Outline: as §1

[17] = target: KIT(V559D, T670I) (Homo sapiens, UniProt P10721, T670I/V559D); settings: read-out: Percent Control
Outline: as §1

[18] = target: ERBB2 (Homo sapiens, UniProt P04626); settings: read-out: Percent Control
Outline: as §1

[19] = target: HPK1 (Homo sapiens, UniProt Q92918); settings: HPK1 (Entrez MAP4K1), read-out: Percent Control
Sequence of HPK1 (Q92918 whole entry): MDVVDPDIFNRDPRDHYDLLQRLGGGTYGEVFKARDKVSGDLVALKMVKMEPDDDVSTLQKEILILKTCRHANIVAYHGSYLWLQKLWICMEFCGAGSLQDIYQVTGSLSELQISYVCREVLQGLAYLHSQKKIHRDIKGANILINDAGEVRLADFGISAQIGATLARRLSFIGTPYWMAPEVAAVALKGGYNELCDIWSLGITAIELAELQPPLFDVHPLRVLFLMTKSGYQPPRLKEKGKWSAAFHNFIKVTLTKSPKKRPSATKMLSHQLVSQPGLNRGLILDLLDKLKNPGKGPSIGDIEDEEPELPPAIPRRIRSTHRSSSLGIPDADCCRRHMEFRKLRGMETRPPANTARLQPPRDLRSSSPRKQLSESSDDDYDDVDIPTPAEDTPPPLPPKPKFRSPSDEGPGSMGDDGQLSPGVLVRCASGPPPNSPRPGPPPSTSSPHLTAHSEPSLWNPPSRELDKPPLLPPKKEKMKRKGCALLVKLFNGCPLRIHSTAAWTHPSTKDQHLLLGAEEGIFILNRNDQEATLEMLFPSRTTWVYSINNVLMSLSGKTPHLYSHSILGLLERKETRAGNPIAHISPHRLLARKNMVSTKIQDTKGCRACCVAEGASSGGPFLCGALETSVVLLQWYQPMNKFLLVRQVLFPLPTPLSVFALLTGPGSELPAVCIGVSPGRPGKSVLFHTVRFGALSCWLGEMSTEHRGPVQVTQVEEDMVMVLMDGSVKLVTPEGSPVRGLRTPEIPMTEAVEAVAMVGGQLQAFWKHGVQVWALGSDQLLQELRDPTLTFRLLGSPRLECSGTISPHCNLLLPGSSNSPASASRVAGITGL
Outline: as §1

[20] = target: SRMS (Homo sapiens, UniProt Q9H3Y6); settings: read-out: Percent Control
Outline: as §1

[21] = target: MAP4K2 (Homo sapiens, UniProt Q12851); settings: read-out: Percent Control
Sequence of MAP4K2 (Q12851 whole entry): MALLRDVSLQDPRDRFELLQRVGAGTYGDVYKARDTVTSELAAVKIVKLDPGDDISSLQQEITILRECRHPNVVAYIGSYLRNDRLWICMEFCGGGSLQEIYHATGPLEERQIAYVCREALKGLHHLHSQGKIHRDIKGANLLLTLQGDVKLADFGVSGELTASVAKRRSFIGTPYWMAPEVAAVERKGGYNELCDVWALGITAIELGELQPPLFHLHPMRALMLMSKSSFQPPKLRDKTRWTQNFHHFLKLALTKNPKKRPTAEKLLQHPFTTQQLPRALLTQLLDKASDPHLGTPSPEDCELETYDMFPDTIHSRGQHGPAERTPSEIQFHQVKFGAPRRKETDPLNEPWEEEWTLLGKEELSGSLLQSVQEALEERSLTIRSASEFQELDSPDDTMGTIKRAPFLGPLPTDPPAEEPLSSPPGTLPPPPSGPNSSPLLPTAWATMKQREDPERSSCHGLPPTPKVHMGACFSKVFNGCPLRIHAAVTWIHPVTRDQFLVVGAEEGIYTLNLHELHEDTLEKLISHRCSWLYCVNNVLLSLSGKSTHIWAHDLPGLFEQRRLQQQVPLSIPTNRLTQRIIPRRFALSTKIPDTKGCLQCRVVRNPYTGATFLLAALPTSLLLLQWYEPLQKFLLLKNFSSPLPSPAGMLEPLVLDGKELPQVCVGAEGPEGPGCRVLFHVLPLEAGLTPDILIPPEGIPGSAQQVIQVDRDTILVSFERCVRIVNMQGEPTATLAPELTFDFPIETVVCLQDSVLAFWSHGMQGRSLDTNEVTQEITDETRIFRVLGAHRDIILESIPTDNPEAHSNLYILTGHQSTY
Outline: as §1

[22] = target: TIE1 (Homo sapiens, UniProt P35590); settings: read-out: Percent Control
Sequence of TIE1 (P35590 22-1138): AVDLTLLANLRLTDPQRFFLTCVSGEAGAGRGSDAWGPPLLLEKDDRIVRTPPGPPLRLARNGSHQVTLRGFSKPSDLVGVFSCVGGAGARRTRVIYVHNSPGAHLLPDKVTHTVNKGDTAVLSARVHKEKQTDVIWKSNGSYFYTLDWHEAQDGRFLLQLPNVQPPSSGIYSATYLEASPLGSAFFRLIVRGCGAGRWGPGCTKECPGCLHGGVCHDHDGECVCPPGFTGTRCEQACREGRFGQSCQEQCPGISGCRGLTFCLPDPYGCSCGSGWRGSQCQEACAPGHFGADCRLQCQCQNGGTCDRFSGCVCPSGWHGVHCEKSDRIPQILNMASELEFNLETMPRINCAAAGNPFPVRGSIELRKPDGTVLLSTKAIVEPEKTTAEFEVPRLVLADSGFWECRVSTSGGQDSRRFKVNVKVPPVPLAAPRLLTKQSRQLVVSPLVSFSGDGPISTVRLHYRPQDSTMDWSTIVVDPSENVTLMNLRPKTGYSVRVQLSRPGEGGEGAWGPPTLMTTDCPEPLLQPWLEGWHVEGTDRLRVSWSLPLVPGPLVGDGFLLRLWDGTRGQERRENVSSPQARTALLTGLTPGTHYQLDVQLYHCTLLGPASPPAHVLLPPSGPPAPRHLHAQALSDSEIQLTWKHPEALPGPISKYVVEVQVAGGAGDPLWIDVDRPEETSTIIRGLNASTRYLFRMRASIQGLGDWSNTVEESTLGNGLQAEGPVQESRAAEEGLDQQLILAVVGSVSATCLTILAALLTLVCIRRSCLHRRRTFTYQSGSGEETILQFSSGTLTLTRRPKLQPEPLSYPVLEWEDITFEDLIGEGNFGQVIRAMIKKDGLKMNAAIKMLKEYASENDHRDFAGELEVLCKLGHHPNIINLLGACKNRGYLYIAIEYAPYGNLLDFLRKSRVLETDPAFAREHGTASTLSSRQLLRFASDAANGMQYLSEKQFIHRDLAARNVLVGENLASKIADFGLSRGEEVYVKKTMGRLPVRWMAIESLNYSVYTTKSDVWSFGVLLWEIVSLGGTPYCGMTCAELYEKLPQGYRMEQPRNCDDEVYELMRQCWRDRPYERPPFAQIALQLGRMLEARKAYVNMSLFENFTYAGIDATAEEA
Outline: as §1

[23] = target: T9, JNK1 (Homo sapiens, UniProt P45983); settings: JNK1 (Entrez MAPK8), read-out: Percent Control
T9 construct: purchased KINOMEscan (screening platform)
Outline: as §1

[24] = target: T10, MAP3K15 (Homo sapiens, UniProt Q6ZN16); settings: read-out: Percent Control
T10 construct: purchased KINOMEscan (screening service)
Outline: as §1

[25] = target: T11, p38-alpha (Homo sapiens, UniProt Q16539); settings: p38-alpha (Entrez MAPK14), read-out: Percent Control
T11 construct: purchased KINOMEscan (panel service)
T11 sequence (Q16539 whole entry): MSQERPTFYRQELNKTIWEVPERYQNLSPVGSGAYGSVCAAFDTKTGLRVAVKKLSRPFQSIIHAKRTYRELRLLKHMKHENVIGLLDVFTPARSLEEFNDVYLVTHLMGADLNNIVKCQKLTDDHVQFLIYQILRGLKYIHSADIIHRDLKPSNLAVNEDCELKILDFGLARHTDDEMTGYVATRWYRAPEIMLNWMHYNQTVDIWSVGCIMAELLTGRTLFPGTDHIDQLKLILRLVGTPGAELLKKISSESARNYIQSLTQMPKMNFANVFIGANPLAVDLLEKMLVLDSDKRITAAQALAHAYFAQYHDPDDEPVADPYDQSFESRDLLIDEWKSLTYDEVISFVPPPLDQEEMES
Outline: as §1

[26] = target: KIT(D816H) (Homo sapiens, UniProt P10721, D816H); settings: read-out: Percent Control
Outline: as §1

[27] = target: FLT3(K663Q) (Homo sapiens, UniProt P36888, K663Q); settings: read-out: Percent Control
Outline: as §1

[28] = target: T12, ALK (Homo sapiens, UniProt Q9UM73); settings: read-out: Percent Control
T12 construct: purchased KINOMEscan (screening service)
Outline: as §1

[29] = target: ABL1-nonphosphorylated (Homo sapiens, UniProt P00519); settings: read-out: Percent Control
Outline: as §1

[30] = target: T13, SRC (Homo sapiens, UniProt P12931); settings: read-out: Percent Control
T13 construct: purchased KINOMEscan (panel service)
Outline: as §1

[31] = target: STK36 (Homo sapiens, UniProt Q9NRP7); settings: read-out: Percent Control
Outline: as §1

[32] = target: EPHA6 (Homo sapiens, UniProt Q9UF33); settings: read-out: Percent Control
Outline: as §1

[33] = target: T14, KIT (Homo sapiens, UniProt P10721); settings: read-out: Percent Control
T14 construct: purchased KINOMEscan (panel service)
Outline: as §1

[34] = target: JNK2 (Homo sapiens, UniProt P45984); settings: JNK2 (Entrez MAPK9), read-out: Percent Control
Outline: as §1

[35] = target: SLK (Homo sapiens, UniProt Q9H2G2); settings: read-out: Percent Control
Outline: as §1

Q: `Cc1ccc(Nc2ncc3c(n2)N(C)CN(c2cc(NC(=O)c4cccc(C(F)(F)F)c4)ccc2C)C3)cn1` [IA-9, N-(4-methyl-3-(1-methyl-7-((6-methylpyridin-3-yl)amino)-1,4-dihydropyrimido[4,5-d]pyrimidin-3(2H)-yl)phenyl)-3-(trifluoromethyl)benzamide] was tested. Which remaining binding at 10 µM [1] did it give?
A: Its remaining binding at 10 µM is 0.9%.

Q: And the remaining binding at 10 µM [2]?
A: Its remaining binding at 10 µM is 3.2%.

Q: And the remaining binding at 10 µM [3]?
A: The remaining binding at 10 µM was 13%.

Q: What about the remaining binding at 10 µM [4] of the same compound?
A: The remaining binding at 10 µM was 29%.

Q: And the remaining binding at 10 µM [5]?
A: Its remaining binding at 10 µM is 12%.

Q: What about the remaining binding at 10 µM [6] of the same compound?
A: Its remaining binding at 10 µM is 0.35%.

Q: And the remaining binding at 10 µM [7]?
A: Its remaining binding at 10 µM is 1.1%.

Q: What about the remaining binding at 10 µM [8] of the same compound?
A: The remaining binding at 10 µM was 0.15%.

Q: What about the remaining binding at 10 µM [9] of the same compound?
A: The remaining binding at 10 µM was 6%.

Q: What about the remaining binding at 10 µM [10] of the same compound?
A: The remaining binding at 10 µM was 0%.

Q: And the remaining binding at 10 µM [11]?
A: The remaining binding at 10 µM was 0%.

Q: And the remaining binding at 10 µM [12]?
A: The remaining binding at 10 µM was 26%.

Q: What about the remaining binding at 10 µM [13] of the same compound?
A: Its remaining binding at 10 µM is 7%.

Q: What about the remaining binding at 10 µM [14] of the same compound?
A: The remaining binding at 10 µM was 0%.

Q: And the remaining binding at 10 µM [15]?
A: Its remaining binding at 10 µM is 0.55%.

Q: What about the remaining binding at 10 µM [16] of the same compound?
A: Its remaining binding at 10 µM is 0%.

Q: And the remaining binding at 10 µM [17]?
A: The remaining binding at 10 µM was 0.3%.

Q: And the remaining binding at 10 µM [18]?
A: The remaining binding at 10 µM was 0%.

Q: And the remaining binding at 10 µM [19]?
A: The remaining binding at 10 µM was 3.8%.

Q: What about the remaining binding at 10 µM [20] of the same compound?
A: The remaining binding at 10 µM was 0.95%.

Q: What about the remaining binding at 10 µM [21] of the same compound?
A: Its remaining binding at 10 µM is 4.6%.

Q: And the remaining binding at 10 µM [22]?
A: Its remaining binding at 10 µM is 5.6%.

Q: And the remaining binding at 10 µM [23]?
A: Its remaining binding at 10 µM is 28%.

Q: And the remaining binding at 10 µM [24]?
A: Its remaining binding at 10 µM is 8.4%.

Q: And the remaining binding at 10 µM [25]?
A: Its remaining binding at 10 µM is 0.1%.

Q: And the remaining binding at 10 µM [26]?
A: Its remaining binding at 10 µM is 5.4%.

Q: And the remaining binding at 10 µM [27]?
A: Its remaining binding at 10 µM is 0.55%.

Q: And the remaining binding at 10 µM [28]?
A: The remaining binding at 10 µM was 22%.

Q: And the remaining binding at 10 µM [29]?
A: The remaining binding at 10 µM was 0.3%.

Q: And the remaining binding at 10 µM [30]?
A: Its remaining binding at 10 µM is 0.15%.

Q: And the remaining binding at 10 µM [31]?
A: The remaining binding at 10 µM was 1.6%.

Q: What about the remaining binding at 10 µM [32] of the same compound?
A: Its remaining binding at 10 µM is 0%.

Q: What about the remaining binding at 10 µM [33] of the same compound?
A: Its remaining binding at 10 µM is 0.05%.

Q: And the remaining binding at 10 µM [34]?
A: Its remaining binding at 10 µM is 0.7%.

Q: And the remaining binding at 10 µM [35]?
A: Its remaining binding at 10 µM is 6.1%.
